# US10723716B2, “Alpha-helix mimetics as modulators of Abeta self-assembly” (New York University, priority 2016, dated 2020)
# Columns and labels:
# [1] = target: T1, IAPP (Homo sapiens, UniProt P10997); assay: Lipid (LUV) catalyzed IAPP aggregation, ThT; assay type: biochemical; conditions: 10 μM IAPP, LUVs (DOPG:DOPC 1:1, 600 μM), equimolar ratio
# T1 construct: purchased Anaspec (Fremont, Calif., USA)
# T1 sequence (P10997 34-70 limits assumed): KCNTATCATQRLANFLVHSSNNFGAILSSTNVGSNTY
# Protocol: LUVs were prepared using an equimolar ratio of dioleoylphosphatidylglycerol (DOPG) and dioleoylphosphatidylcholine (DOPC). A solution of DOPG and DOPC (10 mg/mL each) in chloroform was mixed, dried over a stream of argon (g) for 1 h, and then lyophilized for 6 h (0.1×10^−3 bar). The solid was then rehydrated in 1 mL phosphate buffer for 30 min. The turbid solution (10 mg/mL, 1:1, DOPG:DOPC) was then extruded (21 times) through 100 nm diameter filters (Whatman, GE Healthcare, Marlborough, Mass., USA). The concentration of the phospholipid content in the extruded material was confirmed by calculating total phosphorus using total phosphate assay as described in Chen, P. S.; Toribara, T. Y.; Warner, H. Anal. Chem. 1956, 28, 1756-1758.
# The effect of the α-helical mimetics was also assessed on the membrane associated α-helical conformation of IAPP.
# [2] = target: T2, Aβ42 (Homo sapiens, UniProt P05067); assay: PICUP SDS-PAGE of Aβ42 oligomers; assay type: biochemical; conditions: 5 μM Aβ42, equimolar ratio
# T2 construct: Cleavage of APP results in several Aβ isoforms; The predominant species are Aβ42 and Aβ40; purchased Anaspec (Fremont, Calif., USA)
# Protocol: The reaction mixture was irradiated for 30 s using filament lamp (power=150 W) by keeping it 20 cm away from the bottom of the reaction tubes. The cross-linking reaction was then quenched immediately with dithiothreitol (1 M, 1 μL, Sigma Aldrich, St. Louis, Mo., USA). The samples were incubated on ice for 15 min. followed by the addition of SDS buffer. The samples were heated at 90° C. for 5 min. and then centrifuged. […] The samples were applied to Nu-PAGE electrophoresis in 12% Bis-Tris gels with SDS-PAGE buffer. The protein samples were stained with a silver stain kit from Sigma Aldrich (St. Louis, Mo., USA).
# [3] = target: T2, Aβ42; assay: Dynamic light scattering of Aβ42 species; assay type: biochemical
# Protocol: The particle size distribution of 5 μM Aβ42 increased from a range of hydrodynamic radii of 40-80 nm to 100-500 nm after incubation for 24 h (FIG. 4a).
# [4] = DLS and UV-Vis probe of colloidal aggregation of the compound; assay type: physicochemical
# Protocol: UV-Vis was employed to probe the chemical aggregation of ADH-41 under kinetic assay conditions. The measurements were carried out on a double beam Carry 100 Bio spectrophotometer (Agilent Technologies, Santa Clara, Calif.) controlled by Cary WinUV software (version=3.0).
# Dynamic light scattering (DLS) and ultraviolet-visible (UV-Vis) spectroscopy was employed to probe the micelle forming capacity of ADH-41.
# [5] = target: T3, Nα-amino-terminal fluorescein-labeled Aβ40 (Homo sapiens, UniProt P05067); assay: Fluorescence titration; conditions: 20 mM NaPi, 1% TFE, pH 7.4; read-out: apparent binding affinity (app. Kd)
# T3 construct: fluorescein-labeled Aβ40 was purchased from Anaspec (Fremont, Calif., USA); purchased Anaspec (Fremont, Calif., USA)
# Protocol: N^α-amino-terminal fluorescein-labeled Aβ40 was purchased from Anaspec (Fremont, Calif., USA) and used without further purification. To ensure the monomeric state of N^α-amino-terminal fluorescein-labeled Aβ40, the peptide was treated similar to other peptides and stored at −80° C. in the dark until use. Fluorescence measurements were performed on a FlexStation 3 Multi-Mode Microplate reader from Molecular Devices (Sunnyvale, Calif., USA). Fluorescence titrations were conducted in triplicate in a 96-well plate with a final well volume of 200 μL. For fluorescence measurements, the fluorescein dye was excited at 492 nm and the spectra were recorded from 500 nm to 600 nm. […] The plot was fitted using a sigmoidal fit to extract the apparent binding affinity.
# [6] = target: T4, Aβ40 (Homo sapiens, UniProt P05067); assay: Circular dichroism (CD) spectroscopy of Aβ40; assay type: biochemical; conditions: Aβ40, equimolar ratio
# T4 construct: Cleavage of APP results in several Aβ isoforms; The predominant species are Aβ42 and Aβ40; purchased Anaspec (Fremont, Calif., USA)
# Protocol: A second set of compounds was identified as potent inhibitors of Aβ aggregation. In contrast to ADH-41, they are negatively charged. […] The absorbance increased gradually from 0 to 6 h indicating an increase in the amount of soluble oligomers of Aβ42. […] A time-dependent increase in the amount of the A11-sensitive Aβ42 oligomeric structures was reflected in the progressive enhancement in the chemiluminescence intensity of the dots, which reached a maximum intensity around 6 h (FIG. 27g). The intensity decreased after 12 h, due to formation of fibers that are not sensitive to the A11 antibody. […] The far UV-CD spectrum of a sample of 20 μM Aβ40 transitioned from that of a random coil to a β-sheet conformation over 24 h (FIG. 27h).
# A freshly prepared stock solution of Aβ42 (500 μM) was diluted to 15 μM in phosphate buffer for CD measurements. The spectra of Aβ42 in the absence and presence of the compounds of the invention were recorded at 0.5 nm intervals from 190 to 260 nm with an averaging time of 10 sec. and an average of three repeats on a Aviv Stopped Flow CD Spectropolarimeter (Model 202SF).
# T2 sequence (P05067 672-713 limits assumed): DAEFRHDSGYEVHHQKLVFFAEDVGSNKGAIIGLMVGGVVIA
# T4 sequence (P05067 672-711 limits assumed): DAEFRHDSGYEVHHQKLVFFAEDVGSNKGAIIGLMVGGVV
# T3 sequence (P05067 672-711 limits assumed): as above
rel. t50 of IAPP fibrillation [1],"higher order oligomers of Aβ42 (PICUP, SDS-PAGE) ([2]; 24 h and 36 h)","higher order oligomers of Aβ42 (PICUP, SDS-PAGE) ([2]; up to 12 h)","hydrodynamic radii of Aβ42 particles ([3]; 5 μM Aβ42, equimolar ratio, 24 h incubation)",change in particle size of Aβ42-ADH-41 complex ([3]; after 3 days),"concentration range over which absorbance is linear ([4]; absorbance at 351 nm, phosphate buffer pH 7.4) [µM]","diameter (from volume) of compound particles by DLS ([4]; phosphate buffer (150 mM KCl, 50 mM NaPi, pH 7.4), 20° C.)",Kd [5] [nM],β-sheet formation of Aβ40 (far UV-CD) [6],conformation of Aβ40 (far UV-CD) ([6]; stable after 48 h),SMILES
0.8±0.2,sparse populations,no higher order oligomers,50-100 nm,No change,10 to 100,below 10 nm,1400 ± 200,,,COC(=O)c1ccc(NC(=O)c2ccc(NC(=O)c3ccc([N+](=O)[O-])c(OCc4ccccc4)n3)c(OCCCN)n2)c(OCCCN)n1 [ADH-41]
,,,,,,,,no β-sheet formation was observed,adopts an α-helical conformation,COC(=O)c1ccc(NC(=O)c2ccc(NC(=O)c3ccc(NC(=O)c4ccc([N+](=O)[O-])c(OCC(C)C)n4)c(OCc4ccccc4)n3)c(OCC(=O)O)n2)c(OCC(=O)O)n1 [ADH-31]
